Assay results taken from patent US11192893B2, “Pyrazoloquinazolinone antitumor agents” (The Rockefeller University, priority 2017, dated 2021).
Where two headings read alike, the source gives them in different places.

Tests used:
[1] = biological target: human cytoplasmic dynein 2 (Homo sapiens (Human), UniProt Q8NCM8); test: microtubule gliding assay with GFP-dynein 2; format: biochemical; conditions: for Gliding velocity: dynein 2-driven microtubule gliding, test compounds at 20 pM (so in the source), 0.05 mg/mL casein, 2% DMSO, solvent control 126 ± 17; for Gliding velocity / IC50: 1 mM MgATP; for IC50: Table 1, dose-dependent analysis of dynein 2-driven microtubule gliding
Chain of human cytoplasmic dynein 2 (Q8NCM8 1091-4307 limits assumed): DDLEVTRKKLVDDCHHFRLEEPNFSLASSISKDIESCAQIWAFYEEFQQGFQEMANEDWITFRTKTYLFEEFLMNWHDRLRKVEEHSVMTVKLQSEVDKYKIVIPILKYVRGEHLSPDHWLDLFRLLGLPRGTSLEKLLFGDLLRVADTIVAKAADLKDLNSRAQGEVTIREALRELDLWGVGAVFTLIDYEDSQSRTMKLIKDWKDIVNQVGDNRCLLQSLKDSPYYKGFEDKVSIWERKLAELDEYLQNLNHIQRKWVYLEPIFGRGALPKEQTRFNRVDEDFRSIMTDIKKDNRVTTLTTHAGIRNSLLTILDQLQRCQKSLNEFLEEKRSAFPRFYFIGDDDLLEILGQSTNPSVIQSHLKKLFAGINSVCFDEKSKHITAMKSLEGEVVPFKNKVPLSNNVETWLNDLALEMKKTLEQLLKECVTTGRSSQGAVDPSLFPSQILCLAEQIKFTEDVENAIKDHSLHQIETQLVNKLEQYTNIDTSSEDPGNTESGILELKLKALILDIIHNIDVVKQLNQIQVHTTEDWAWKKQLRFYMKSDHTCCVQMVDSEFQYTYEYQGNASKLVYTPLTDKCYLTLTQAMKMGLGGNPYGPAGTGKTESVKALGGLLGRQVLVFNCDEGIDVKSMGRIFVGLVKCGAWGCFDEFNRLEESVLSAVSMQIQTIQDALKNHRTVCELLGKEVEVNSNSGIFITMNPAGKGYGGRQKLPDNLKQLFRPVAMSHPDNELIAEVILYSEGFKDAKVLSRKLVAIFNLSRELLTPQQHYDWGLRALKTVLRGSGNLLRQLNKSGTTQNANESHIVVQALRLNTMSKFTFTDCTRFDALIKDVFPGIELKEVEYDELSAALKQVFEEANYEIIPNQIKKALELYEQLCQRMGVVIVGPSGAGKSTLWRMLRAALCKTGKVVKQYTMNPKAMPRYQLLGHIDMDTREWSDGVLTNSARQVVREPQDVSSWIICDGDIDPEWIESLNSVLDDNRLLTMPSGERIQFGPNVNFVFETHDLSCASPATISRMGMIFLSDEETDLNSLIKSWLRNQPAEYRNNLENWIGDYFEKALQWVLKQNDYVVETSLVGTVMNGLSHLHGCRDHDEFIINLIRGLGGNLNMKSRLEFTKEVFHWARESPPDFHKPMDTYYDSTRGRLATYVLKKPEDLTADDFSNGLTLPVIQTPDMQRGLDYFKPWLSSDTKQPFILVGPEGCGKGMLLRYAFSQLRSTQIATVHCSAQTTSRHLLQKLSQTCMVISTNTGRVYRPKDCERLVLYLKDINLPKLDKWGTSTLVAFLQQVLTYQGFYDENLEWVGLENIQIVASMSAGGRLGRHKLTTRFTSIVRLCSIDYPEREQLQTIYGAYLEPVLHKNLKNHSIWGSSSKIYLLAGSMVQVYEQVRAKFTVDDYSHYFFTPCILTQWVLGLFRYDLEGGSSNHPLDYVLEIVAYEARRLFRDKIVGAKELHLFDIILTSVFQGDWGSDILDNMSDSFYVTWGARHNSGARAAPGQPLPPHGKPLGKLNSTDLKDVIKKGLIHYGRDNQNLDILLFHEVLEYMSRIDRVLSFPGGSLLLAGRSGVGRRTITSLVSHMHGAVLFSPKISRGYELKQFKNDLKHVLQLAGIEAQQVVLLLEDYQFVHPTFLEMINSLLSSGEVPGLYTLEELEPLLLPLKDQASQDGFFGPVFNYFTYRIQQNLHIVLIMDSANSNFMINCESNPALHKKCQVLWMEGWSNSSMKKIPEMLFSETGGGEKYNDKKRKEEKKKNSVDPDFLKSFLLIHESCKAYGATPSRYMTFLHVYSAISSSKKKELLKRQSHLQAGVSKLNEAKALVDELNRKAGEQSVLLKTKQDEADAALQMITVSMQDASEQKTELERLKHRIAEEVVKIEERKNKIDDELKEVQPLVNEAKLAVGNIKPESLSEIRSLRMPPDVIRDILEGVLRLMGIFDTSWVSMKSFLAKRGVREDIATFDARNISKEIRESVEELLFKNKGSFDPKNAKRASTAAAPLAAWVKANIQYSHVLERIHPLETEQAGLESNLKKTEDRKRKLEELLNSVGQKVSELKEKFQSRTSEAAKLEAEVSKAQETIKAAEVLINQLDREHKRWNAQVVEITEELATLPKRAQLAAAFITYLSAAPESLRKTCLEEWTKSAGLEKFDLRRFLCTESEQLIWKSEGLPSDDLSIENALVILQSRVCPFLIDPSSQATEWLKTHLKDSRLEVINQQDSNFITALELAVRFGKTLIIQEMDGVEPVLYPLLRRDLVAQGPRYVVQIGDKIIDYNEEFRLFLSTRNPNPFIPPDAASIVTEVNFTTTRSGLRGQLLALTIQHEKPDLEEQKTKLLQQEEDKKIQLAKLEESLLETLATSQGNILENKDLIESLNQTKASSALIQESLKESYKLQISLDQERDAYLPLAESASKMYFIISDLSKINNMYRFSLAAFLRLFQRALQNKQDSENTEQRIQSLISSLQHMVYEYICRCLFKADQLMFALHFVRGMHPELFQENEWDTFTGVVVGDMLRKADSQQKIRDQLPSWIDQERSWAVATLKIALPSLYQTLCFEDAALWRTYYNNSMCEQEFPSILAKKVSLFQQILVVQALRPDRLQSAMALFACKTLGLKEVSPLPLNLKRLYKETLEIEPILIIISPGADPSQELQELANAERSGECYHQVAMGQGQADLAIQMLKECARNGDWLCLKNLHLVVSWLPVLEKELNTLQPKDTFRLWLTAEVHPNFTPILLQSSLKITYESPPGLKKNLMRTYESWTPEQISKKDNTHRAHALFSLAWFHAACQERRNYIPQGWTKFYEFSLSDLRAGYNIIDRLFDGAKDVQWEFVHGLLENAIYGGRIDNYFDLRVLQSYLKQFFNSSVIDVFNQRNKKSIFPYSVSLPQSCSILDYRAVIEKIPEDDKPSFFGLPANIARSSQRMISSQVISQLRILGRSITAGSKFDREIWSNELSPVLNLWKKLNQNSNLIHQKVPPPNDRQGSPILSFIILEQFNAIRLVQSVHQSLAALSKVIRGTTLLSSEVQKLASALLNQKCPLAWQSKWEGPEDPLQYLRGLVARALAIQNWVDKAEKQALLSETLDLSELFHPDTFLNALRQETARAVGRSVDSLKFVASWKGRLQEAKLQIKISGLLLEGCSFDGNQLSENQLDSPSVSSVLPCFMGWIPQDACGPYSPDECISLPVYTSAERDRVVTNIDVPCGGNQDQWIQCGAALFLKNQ
Method: Compounds were tested employing a microtubule gliding assay, a standard biochemical assay for motor proteins. […] We purified an N-terminally GFP-tagged motor-domain construct of dynein 2 using an insect cell expression system [Schmidt et al., Nature. 2015; 518(7539):435-8]. The GFP tag in this construct allowed immobilization on passivated glass coverslips used in microtubule gliding assays. GFP-dynein 2, in the presence of ATP (1 mM), moved microtubules with a velocity of 128±14 nm/s. The mean velocity of dynein 2-driven microtubule gliding in the presence of control solvent (2% DMSO) and test compounds at 20 pM were compared. All motility assays were run at 1 mM MgATP, 0.05 mg/mL casein, and 2% DMSO. Representative examples of compounds of the invention provided the results shown as “Gliding velocity in nm/s” in Table 1. For some compounds, dose-dependent analyses were performed, and the results are shown as “IC50 in μM” in Table 1.
Microtubule surface gliding assay. Cytoplasmic dynein was purified from bovine brains as described by Bingham et al. [Methods Enzymol. 298, 171 (1998)]. K560, a 560-amino acid N-terminal fragment of human conventional kinesin (kinesin-1) with a C-terminal His-tag, was expressed in bacteria and purifed as described by Woehlke et al., [Cell 90, 207 (1997)]. Motility assays were performed on a Zeiss Axiovert 200M wide-field microscope equipped with a Zeiss 100×/1.45 NA α-Plan-Fluar objective. Data were captured with an EM-CCD camera (iXon DU-897, Andor Technology) with a 0.3-second exposure time and frame rate of 0.5 second^−1. Microtubule gliding assays were performed as described by Kapoor and Mitchison [Proc. Natl. Acad. Sci. U.S.A 96, 9106 (1999)] with some modifications. An approximately 6-μL flow chamber was filled with motor protein (100 μg/mL dynein or 50 μg/mL K560) in motor dilution buffer (80 mM Pipes, 1 mM EGTA, 2 mM MgCl2, 2 mM DTT, 50 μM ATP, pH 6.8 with KOH). After a 2-minute incubation, excess protein was washed out with 20 μL of PEM80 buffer (80 mM Pipes, 1 mM EGTA, 2 mM MgCl2, pH 6.8 with KOH) and the surface was blocked against non-specific microtubule binding by filling the chamber with blocking protein (0.5 mg/mL α-casein for dynein experiments and 1 mg/mL BSA for K560 experiments) in motor dilution buffer. After 2 minutes the chamber was perfused with 18 μL of reaction mix (PEM80, 40 mM KC 1, blocking protein [1 mg/mL α-casein for dynein experiments; 1 mg/mL BSA for K560 experiments], 2 mM MgATP, 20 μM taxol, 0.1 μM rhodamine-labeled microtubules, oxygen depletion system [4 mM DTT, 2 mM glucose, 40 μg/mL glucose oxidase, 35 μg/mL catalase], 2.5% DMSO, and test compounds as appropriate). The flow chamber was then sealed with valap. After allowing the microtubules to bind to the surface for 5 minutes, the gliding microtubules were visualized by time-lapse fluorescence microscopy. Velocities were measured by kymography using Metamorph software (Molecular Devices), and the velocity for each microtubule was determined from the total distance during the time observed.
For washout experiments, the chamber was left unsealed after the initial reaction mix containing inhibitor was added. Microtubules were allowed to bind to the surface for 5 minutes, and then a time-lapse movie was acquired. The inhibitor was then washed out of the chamber by flowing in 20 μL of fresh reaction mix (PEM80, 40 mM KCl, 1 mg/mL α-casein, 2 mM MgATP, 20 μM taxol, oxygen depletion system, and 2.5% DMSO) without additional microtubules or inhibitor. The chamber was sealed, and additional time-lapse movies were acquired.

[2] = tested on: Hedgehog pathway activity; test: Shh-Light luciferase reporter assay of Hedgehog pathway activity (Shh-Light2 cells, SAG-stimulated); format: cell-based; conditions: for activity at 20 µM: 20 μM compound, read-out: SHH-light % residual @ 20 μM; for activity at 2 µM: 2 μM compound, read-out: SHH-light % residual @ 2 μM
Method: To examine the inhibition of dynein 2 in cell-based assays, an established luciferase reporter-based cellular assay of Hedgehog pathway activity was employed [Taipale et al., Nature. 2000; 406(6799): 1005-9]. Signaling in this pathway depends on the function of dynein 2. In this setting, expression of luciferase driven by Hedgehog pathway activity was inhibited by compound 5 with an IC50 value of 0.9±0.5 μM. […] The potencies of these compounds in this cell-based assay match the rank-order of dynein 2 inhibition in vitro. In these assays, Hedgehog pathway activity was stimulated using the Synthetic Agonist of Smoothened (SAG). This compound competes with many Hedgehog pathway inhibitors for binding to Smoothened, a key node in the signaling pathway.
SHH-Light Assay (Steinman et al. eLife 2017; 6:e25174.)
NIH-3T3 cells stably expressing a luciferase reporter downstream of a Gli binding site (Shh-Light2 cells, RRID: CVCL_2721) were maintained in DMEM with 10% bovine calf serum (BCS). Cells were seeded at a density of 30,000 cells/well in 96-well tissue culture-treated plates (Corning, cat #353072) in 100 μL in DMEM+10% BCS, and incubated for 48 hr (Taipale et al., 2000). Wells were washed briefly with PBS. Next […] of low serum media (DMEM+0.5% BCS) containing smoothened agonist (SAG, 500 nM), and either solvent control (0.2% DMSO) or test compound (serial three-fold dilutions of each inhibitor starting from 20 μM) were added to the wells. After 28-32 hr of inhibitor treatment, cells were washed with 50 μL PBS and lysed for >30 min in 30 μL Passive Lysis Buffer (Promega Dual Luciferase kit, cat E1910). 5 uL of each lysate was transferred to white, solid-bottom 96-well plates (Greiner, cat #655075), followed by rapid addition (within 30 s) of 30 μL of Luciferase Assay Reagent using a multichannel pipette. Luminescence for each condition was read using a Synergy Neo plate reader (5 s integration time per well). Cell line identity was confirmed by measurement of the degree of response to Hedgehog pathway stimulation by the synthetic agonist SAG and using previously published values from our groups and others as references (Firestone et al., 2012; Hyman et al., 2009).

human dynein 1 = human dynein 1 (Homo sapiens (Human), UniProt Q14204); test: microtubule gliding assay with GFP-dynein 1; format: biochemical; conditions: washout
Text: To examine the inhibition of dynein 1 by compound 5 in vitro we generated recombinant human protein. We expressed and purified a GFP-tagged human dynein 1 (AA 1320-'16'16) construct similar to the one we used for GFP dynein 2. […] GFP-dynein 1 moves microtubules at 510±60 nm/s, a velocity expected based on studies of other mammalian dynein 1 homologs (n=7).
Microtubule surface gliding assay. Cytoplasmic dynein was purified from bovine brains as described by Bingham et al. [Methods Enzymol. 298, 171 (1998)]. K560, a 560-amino acid N-terminal fragment of human conventional kinesin (kinesin-1) with a C-terminal His-tag, was expressed in bacteria and purifed as described by Woehlke et al., [Cell 90, 207 (1997)]. Motility assays were performed on a Zeiss Axiovert 200M wide-field microscope equipped with a Zeiss 100×/1.45 NA α-Plan-Fluar objective. Data were captured with an EM-CCD camera (iXon DU-897, Andor Technology) with a 0.3-second exposure time and frame rate of 0.5 second^−1. […] After allowing the microtubules to bind to the surface for 5 minutes, the gliding microtubules were visualized by time-lapse fluorescence microscopy. Velocities were measured by kymography using Metamorph software (Molecular Devices), and the velocity for each microtubule was determined from the total distance during the time observed. […]

[3] = tested on: dynein 1 construct with a mutation in the AAA3 domain (Walker A residue); test: ATPase activity of dynein 1 construct with AAA3 mutation; format: biochemical
Text: ATPase activity at AAA1 is linked to individual steps of the motor, while the AAA3 site plays a regulatory role. Two lines of evidence indicate that compounds of the invention target the AAA1 site specifically. First, compound 5 inhibits the activity of a dynein 1 construct with a mutation in the AAA3 domain (Walker A residue). In this construct, the ATPase activity is expected to be mainly due to the AAA1 site. Second, the potency of inhibition of the AAA3 mutant is similar to that of the microtubule-stimulated ATPase rate. Sequence comparisons indicate that the AAA1 sites in dynein 1 and 2 are highly conserved, while the other AAA sites are less conserved. In fact, the residues within 4 Å of the bound nucleotide in AAA1 are identical between dynein 1 and 2.

basal cell carcinoma = conditions: 33 human patients; cited from earlier work
medulloblastoma = conditions: human patient; cited from earlier work
[4] = SAG 500 nM, read-out: IC50, luciferase expression driven by Hedgehog pathway activity
[5] = Table 2, SAG 500 nM, 28-32 hr treatment, read-out: Shh-light IC50

SMILES	Gliding velocity [1] [nm/s]	IC50 [1] [nM]	IC50 [2, 5] [nM]	activity at 20 µM ([2]; SAG 500 nM) [%]	activity at 2 µM ([2]; SAG 500 nM) [%]	other results
N#Cc1c(C2(c3ccc(Cl)cc3)CC2)nn2c1[nH]c(=O)c1cc(I)ccc12 [Example 5, 2-[1-(4-chlorophenyl)cyclopropyl]-7-iodo-5-oxo-4H-pyrazolo[1,5-a]quinazoline-3-carbonitrile]	6 ± 2	2600 ± 1300	1450	-5.2	24.8	reversibility of inhibition of dynein 1-dependent microtubule gliding (human dynein 1): reversed following washout; reversibility of inhibition of dynein 2-dependent motility ([1]; washout): reversed following washout; inhibition of ATPase activity of AAA3 mutant dynein 1 [3]: inhibits; IC50 [2, 4]: 900 ± 500 nM
O=c1c2ccccc2[nH]c2cc(-c3ccc(C(F)(F)F)cc3)nn12 [Example 71, 2-[4-(Trifluoromethyl)phenyl]-4H-pyrazolo[5,1-b]quinazolin-9-one]	–	–	–	115	108	–
CN(C)Cc1c(-c2ccc(Cl)cc2Cl)nn2c(=O)c3ccccc3[nH]c12 [Example 72, 2-(2,4-Dichlorophenyl)-3-[(dimethylamino)methyl]-4H-pyrazolo[5,1-b]quinazolin-9-one]	–	–	–	20.1	122	–
O=c1c2ccccc2[nH]c2c(I)c(-c3ccc(Cl)cc3Cl)nn12 [Example 73, 2-(2,4-Dichlorophenyl)-3-iodo-4H-pyrazolo[5,1-b]quinazolin-9-one]	–	–	–	34.6	99.1	–
CS(=O)(=O)c1ccc(C(=O)Nc2ccc(Cl)c(-c3ccccn3)c2)c(Cl)c1 [GDC-0449]	–	–	–	–	–	clinical response, basal cell carcinoma (basal cell carcinoma): clinically significant response; clinical response, medulloblastoma (medulloblastoma): regression of medulloblastoma

Now from value to molecule, other results behind:

Gliding velocity [1] [nm/s]	IC50 [1] [nM]	IC50 [2, 5] [nM]	SMILES	activity at 20 µM ([2]; SAG 500 nM) [%]	activity at 2 µM ([2]; SAG 500 nM) [%]	other results
83 ± 10	–	–	O=c1[nH]c2cc(-c3ccc(Cl)cc3Cl)nn2c2ccccc12 [Example 1, 2-(2,4-dichlorophenyl)-4H-pyrazolo[1,5-a]quinazolin-5-one]	–	–	–
83 ± 10	–	–	N#Cc1c(-c2ccc(Cl)cc2Cl)nn2c1[nH]c(=O)c1ccccc12 [Example 2, 2-(2,4-dichlorophenyl)-5-oxo-4H-pyrazolo[1,5-a]quinazoline-3-carbonitrile]	19.1	–	IC50 [2, 4]: 5200 ± 5000 nM
58 ± 14	–	–	N#Cc1c(C2(c3ccc(Cl)cc3)CC2)nn2c1[nH]c(=O)c1ccccc12 [Example 3, 2-[1-(4-chlorophenyl)cyclopropyl]-5-oxo-4H-pyrazolo[1,5-a]quinazoline-3-carbonitrile]	–	–	–
6 ± 2	3300 ± 200	–	N#Cc1c(C2(c3ccc(Cl)cc3)CC2)nn2c1[nH]c(=O)c1cc(C(F)(F)F)ccc12 [Example 4, 2-(1-(4-chlorophenyl)cyclopropyl)-5-oxo-7-(trifluoromethyl)-4,5-dihydropyrazolo[1,5-a]quinazoline-3-carbonitrile]	-4.4	41.8	–
–	290	290	N#Cc1c(C2(c3ccc(Cl)cc3)CC2)nn2c(=O)c3cc(Br)ccc3[nH]c12 [Example 12, 7-Bromo-2-[1-(4-chlorophenyl)cyclopropyl]-9-oxo-4H-pyrazolo[5,1-b]quinazoline-3-carbonitrile]	-1.9	-3.1	–
–	620	600	N#Cc1c(C2CCC(c3ccc(Cl)cc3)CC2)nn2c(=O)c3ccccc3[nH]c12 (stereo not drawn) [Example 27, 2-[4-(4-Chlorophenyl)cyclohexyl]-9-oxo-4H-pyrazolo[5,1-b]quinazoline-3-carbonitrile]	-1.5	27.3	–
–	730	680	N#Cc1c(CCCOc2ccc(Cl)cc2)nn2c(=O)c3ccccc3[nH]c12 [Example 29, 2-[3-(4-Chlorophenoxy)propyl]-9-oxo-4H-pyrazolo[5,1-b]quinazoline-3-carbonitrile]	3.8	33.5	–
–	710	660	N#Cc1c(C2(c3ccc(Cl)cc3)CC2)nn2c(=O)c3ccccc3[nH]c12 [Example 31, 2-[1-(4-Chlorophenyl)cyclopropyl]-9-oxo-4H-pyrazolo[5,1-b]quinazoline-3-carbonitrile]	-1.6	30.4	–
